Experimental data taken from patent US9629826B2, “CAI-based systems and methods for the localized treatment of uveitis” (Gen Pharma Holdings, LLC., priority 2014, dated 2017).
Entries after “also recorded” stand apart in the source; their conditions may differ.

Columns and labels:
[1] = cited from earlier work
[2] = in vivo; cited from earlier work
[3] = test system: neovascularization; assay: Contemplated clinical cases: intravitreal or periocular CAI against neovascularization; assay type: in vivo; settings: contemplated cases: 50 mcg intravitreal (Example 9); 200 mcg intravitreal then periocular sustained-release (Example 10)
From the text: The following contemplated clinical cases of angiogenesis are presented as examples of methods of treatment and not as limitations. Other illustrations of treating systemic or localized angiogenesis are not presented, since the principles involved are similar, and will be apparent to the skilled reader based upon review of an individual's clinical manifestation and the preferred embodiments of the inventive compositions.
Person with Proliferative Diabetic Retinopathy and threshold high-risk characteristics presents with Vitreous Hemorrhage. The patient also has atrial fibrillation and ischemic cardiomyopathy that requires oral Coumadin. The patient is intolerant to topical Panretinal Photocoagulation. The INR measured at just less than 2. […] The patients Vitreous Hemorrhage slowly resolves and the patient is able to taper their Coumadin so that Panretinal Photocoagulation can be placed with retrobulbar anesthesia. Alternately, the patient remains on Coumadin and then is treated with a patch periocular insert of CAI to diminish the neovascularization.
Person with a two-week history of central scotoma. They developed a large disciform scar in the contralateral eye after several sessions of photodynamic therapy. On exam and fluorescein angiography is predominately classic subfoveal membrane is noted. […]

[4] = systemic CAI; cited from earlier work
[5] = cited from earlier work; remark: listed apart in the source

Row | SMILES | serious side effect associated with clinical use ([1]; systemic administration, two cases described) | toxic effects observed in clinical studies ([1]; systemic oral dosage regimens) | physiological tissue concentrations [2] | neovascular regression [3] | plasma concentrations associated with unacceptable toxicity [4] | concentration detected in the vitreous cavity ([5]; single 5 mg peribulbar injection in humans) [ng/mL] | delivery to the subretinal space, higher following subconjunctival injection ([5]; subconjunctival injection) [fold]
1 | NC(=O)c1nnn(Cc2cc(Cl)c(C(=O)c3ccc(Cl)cc3)c(Cl)c2)c1N [CAI] | loss of vision | cerebellar ataxia, peripheral neuropathy and exacerbation of depression | 1-10 μM | some neovascular regression; also recorded: neovascular regression occurs | above 100 micromolar | – | –
2 | C[C@@H]1C[C@H]2[C@@H]3CCC4=CC(=O)C=C[C@]4(C)[C@@]3(F)[C@@H](O)C[C@]2(C)[C@@]1(O)C(=O)CO [Dexamethasone] | – | – | – | – | – | 13 | 10
